Publication PMC8327648 (Acta Pharmaceutica Sinica. B, 2021)

How the values were obtained:
pseudotyped HCoV-NL63 = conditions: 12 h
[1] = tested on: SARS-CoV-2 S protein-mediated cell–cell fusion; conditions: 2 h
authentic SARS-CoV-2 = conditions: 48 h
authentic HCoV-OC43 = conditions: 36 h
proteinase K = proteinase K (Parengyodontium album, UniProt P06873); conditions: n = 3
SARS-CoV-2 PsV = conditions: 12 h
trypsin = conditions: n = 3

Chain of proteinase K (P06873 106-384): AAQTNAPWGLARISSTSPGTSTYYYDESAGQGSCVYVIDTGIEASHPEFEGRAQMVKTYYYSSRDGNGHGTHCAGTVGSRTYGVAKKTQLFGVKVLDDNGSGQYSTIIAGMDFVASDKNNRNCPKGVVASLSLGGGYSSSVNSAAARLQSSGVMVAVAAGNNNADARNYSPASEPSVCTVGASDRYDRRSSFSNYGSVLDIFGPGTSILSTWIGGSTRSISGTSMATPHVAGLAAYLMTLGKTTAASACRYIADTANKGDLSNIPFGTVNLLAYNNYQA

Structure (SMILES)	IC50 (pseudotyped HCoV-NL63) [nM]	IC50 [1] [nM]	IC50 (authentic SARS-CoV-2) [nM]	IC50 (authentic HCoV-OC43) [nM]	sensitivity to proteinase K (residual inhibitory activity over time) (proteinase K)	IC50 (SARS-CoV-2 PsV) [nM]	sensitivity to trypsin (residual inhibitory activity over time) (trypsin)
CC[C@H](C)[C@H](NC(=O)[C@H](C)NC(=O)[C@H](CCC(=O)O)NC(=O)[C@H](CCC(=O)O)NC(=O)[C@H](CC(C)C)NC(=O)[C@H](CCCCN)NC(=O)[C@H](CCCCN)NC(=O)[C@H](CCSC)NC(=O)[C@H](CCC(=O)O)NC(=O)[C@H](Cc1ccc(O)cc1)NC(=O)[C@H](CCC(=O)O)NC(=O)[C@H](CC(C)C)NC(=O)[C@H](CC(=O)O)NC(=O)[C@H](CC(C)C)NC(=O)[C@H](Cc1ccccc1)NC(=O)[C@@H](NC(=O)[C@@H](NC(=O)[C@H](CC(N)=O)NC(=O)[C@@H](NC(=O)[C@H](CCC(N)=O)NC(=O)[C@H](CC(=O)O)NC(=O)[C@H](CC(C)C)NC(=O)[C@@H](N)CO)[C@@H](C)CC)C(C)C)[C@@H](C)O)C(=O)N[C@@H](CCCCN)C(=O)N[C@@H](CCCCN)C(=O)N[C@@H](CC(C)C)C(=O)N[C@@H](CCC(=O)O)C(=O)N[C@@H](CCC(=O)O)C(=O)N[C@@H](CO)C(=O)N[C@@H](Cc1ccc(O)cc1)C(=O)N[C@H](C(=O)N[C@@H](CC(=O)O)C(=O)N[C@@H](CC(C)C)C(=O)N[C@@H](CCCCN)C(=O)N[C@@H](CCC(=O)O)C(=O)N[C@@H](CC(C)C)C(N)=O)[C@@H](C)CC [EK1]	1340	320	71	2430			
CC[C@H](C)[C@H](NC(=O)[C@H](C)NC(=O)[C@H](CCC(=O)O)NC(=O)[C@H](CCC(=O)O)NC(=O)[C@H](CC(C)C)NC(=O)[C@H](CCCCN)NC(=O)[C@H](CCCCN)NC(=O)[C@H](CCSC)NC(=O)[C@H](CCC(=O)O)NC(=O)[C@H](Cc1ccc(O)cc1)NC(=O)[C@H](CCC(=O)O)NC(=O)[C@H](CC(C)C)NC(=O)[C@H](CC(=O)O)NC(=O)[C@H](CC(C)C)NC(=O)[C@H](Cc1ccccc1)NC(=O)[C@@H](NC(=O)[C@@H](NC(=O)[C@H](CC(N)=O)NC(=O)[C@@H](NC(=O)[C@H](CCC(N)=O)NC(=O)[C@H](CC(=O)O)NC(=O)[C@H](CC(C)C)NC(=O)[C@@H](N)CO)[C@@H](C)CC)C(C)C)[C@@H](C)O)C(=O)N[C@@H](CCCCN)C(=O)N[C@@H](CCCCN)C(=O)N[C@@H](CC(C)C)C(=O)N[C@@H](CCC(=O)O)C(=O)N[C@@H](CCC(=O)O)C(=O)N[C@@H](CO)C(=O)N[C@@H](Cc1ccc(O)cc1)C(=O)N[C@H](C(=O)N[C@@H](CC(=O)O)C(=O)N[C@@H](CC(C)C)C(=O)N[C@@H](CCCCN)C(=O)N[C@@H](CCC(=O)O)C(=O)N[C@@H](CC(C)C)C(=O)NCC(=O)N[C@@H](CO)C(=O)NCC(=O)N[C@@H](CO)C(=O)NCC(=O)NCCOCCOCCOCCOCCC(=O)N[C@@H](CSCC(=O)O[C@H]1CC[C@@]2(C)C(=CC[C@H]3[C@@H]4CC[C@H]([C@H](C)CCCC(C)C)[C@@]4(C)CC[C@@H]32)C1)C(N)=O)[C@@H](C)CC [EK1C4]		3			gradually decreased more significantly	7 to 27	gradually decreased more significantly
